Results reported in patent US10517889B2, “Modulators of SMAD7 expression” (Ionis Pharmaceuticals, Inc., priority 2017, dated 2019).
Strand notation (5' to 3'): a small letter for the sugar, then the base; units joined by * are phosphorothioate-linked, units joined directly phosphodiester-linked; [ ] holds rarer units or linkages, { } end groups; capitals alone tell only the bases. k = constrained ethyl (cEt); [5mC] = 5-methylcytosine; d = 2'-deoxy (DNA)

system: human SMAD7 mRNA; experiment: Antisense inhibition of human SMAD7 mRNA expression in Hep3B cells by 3-10-3 cEt gapmers, 10,000 nM, electroporation (Example 2); format: cell-based; conditions: Hep3B cells, electroporation with 10,000 nM antisense oligonucleotide, approximately 24 hours, primer probe set RTS5062, relative to untreated control cells
How it was run: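 Percent inhibition of SMAD7 mRNA, relative to untreated cells, after ~24 h exposure of electroporated Hep3B cells to 10,000 nM cEt gapmer; levels by qRT-PCR, corrected for total RNA.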

| Substance | % Inhibition [%] | % inhibition of SMAD7 mRNA expression [%] |
| --- | --- | --- |
| 799119 (antisense kA*kG*k[5mC]*dA*dG*dA*dG*d[5mC]*dT*dT*dA*dA*d[5mC]*kA*k[5mC]*kA) [compound 799119] | 50 | – |
| 799120 (antisense kA*kA*kT*dA*dG*d[5mC]*dA*dG*dA*dG*d[5mC]*dT*dT*kA*kA*k[5mC]) [compound 799120] | 45 | – |
| 799121 (antisense k[5mC]*k[5mC]*kT*dA*dA*dT*dA*dG*d[5mC]*dA*dG*dA*dG*k[5mC]*kT*kT) [compound 799121] | 25 | – |
| 799122 (antisense k[5mC]*kT*kG*dG*d[5mC]*d[5mC]*dT*dA*dA*dT*dA*dG*d[5mC]*kA*kG*kA) [compound 799122] | 29 | – |
| 799123 (antisense k[5mC]*kT*kT*dG*d[5mC]*dT*dG*dG*d[5mC]*d[5mC]*dT*dA*dA*kT*kA*kG) [compound 799123] | – | 23 |
| 799124 (antisense k[5mC]*k[5mC]*kG*d[5mC]*dT*dT*dG*d[5mC]*dT*dG*dG*d[5mC]*d[5mC]*kT*kA*kA) [compound 799124] | – | 17 |
| 799125 (antisense kT*k[5mC]*k[5mC]*d[5mC]*d[5mC]*dG*d[5mC]*dT*dT*dG*d[5mC]*dT*dG*kG*k[5mC]*k[5mC]) [compound 799125] | – | 62 |
| 799126 (antisense kG*kA*k[5mC]*dA*dT*d[5mC]*d[5mC]*d[5mC]*d[5mC]*dG*d[5mC]*dT*dT*kG*k[5mC]*kT) [compound 799126] | – | 4 |
| 799127 (antisense kA*kG*kG*dG*dA*d[5mC]*dA*dT*d[5mC]*d[5mC]*d[5mC]*d[5mC]*dG*k[5mC]*kT*kT) [compound 799127] | – | 67 |
| 799128 (antisense k[5mC]*k[5mC]*k[5mC]*dA*dG*dG*dG*dA*d[5mC]*dA*dT*d[5mC]*d[5mC]*k[5mC]*k[5mC]*kG) [compound 799128] | – | 63 |
| 799129 (antisense k[5mC]*k[5mC]*kT*d[5mC]*d[5mC]*d[5mC]*dA*dG*dG*dG*dA*d[5mC]*dA*kT*k[5mC]*k[5mC]) [compound 799129] | – | 37 |
| 799130 (antisense kG*kT*k[5mC]*d[5mC]*d[5mC]*dT*d[5mC]*d[5mC]*d[5mC]*dA*dG*dG*dG*kA*k[5mC]*kA) [compound 799130] | – | 1 |
| 799131 (antisense k[5mC]*kA*kT*dG*dT*d[5mC]*d[5mC]*d[5mC]*dT*d[5mC]*d[5mC]*d[5mC]*dA*kG*kG*kG) [compound 799131] | – | 6 |
| 799132 (antisense kA*kA*kG*d[5mC]*dA*dT*dG*dT*d[5mC]*d[5mC]*d[5mC]*dT*d[5mC]*k[5mC]*k[5mC]*kA) [compound 799132] | – | 38 |
| 799133 (antisense kG*k[5mC]*kT*dA*dA*dG*d[5mC]*dA*dT*dG*dT*d[5mC]*d[5mC]*k[5mC]*kT*k[5mC]) [compound 799133] | 17 | – |
| 799134 (antisense kA*k[5mC]*kT*dG*d[5mC]*dT*dA*dA*dG*d[5mC]*dA*dT*dG*kT*k[5mC]*k[5mC]) [compound 799134] | 17 | – |
| 799135 (antisense kG*kG*kG*dA*d[5mC]*dT*dG*d[5mC]*dT*dA*dA*dG*d[5mC]*kA*kT*kG) [compound 799135] | 38 | – |
| 799136 (antisense k[5mC]*kT*kT*d[5mC]*dT*dT*dG*dG*dA*dG*dG*dG*dA*kA*kG*kG) [compound 799136] | 3 | – |
| 799137 (antisense kA*kA*kT*d[5mC]*d[5mC]*dT*dT*d[5mC]*dT*dT*dG*dG*dA*kG*kG*kG) [compound 799137] | 49 | – |
| 799138 (antisense k[5mC]*k[5mC]*kA*dA*dA*dT*d[5mC]*d[5mC]*dT*dT*d[5mC]*dT*dT*kG*kG*kA) [compound 799138] | 7 | – |
| 799139 (antisense k[5mC]*kG*kG*dA*d[5mC]*d[5mC]*dA*dA*dA*dT*d[5mC]*d[5mC]*dT*kT*k[5mC]*kT) [compound 799139] | 56 | – |
| 799140 (antisense kT*kG*kA*d[5mC]*dG*dG*dA*d[5mC]*d[5mC]*dA*dA*dA*dT*k[5mC]*k[5mC]*kT) [compound 799140] | 60 | – |
| 799141 (antisense kT*kT*kA*dT*dG*dA*d[5mC]*dG*dG*dA*d[5mC]*d[5mC]*dA*kA*kA*kT) [compound 799141] | 47 | – |
| 799142 (antisense kG*kG*kG*dT*dT*dA*dT*dG*dA*d[5mC]*dG*dG*dA*k[5mC]*k[5mC]*kA) [compound 799142] | 38 | – |
| 799145 (antisense k[5mC]*kT*kT*dG*dG*dG*dT*dT*dA*dT*dG*dA*d[5mC]*kG*kG*kA) [compound 799145] | – | 46 |
| 799146 (antisense kT*kA*k[5mC]*d[5mC]*dT*dT*dG*dG*dG*dT*dT*dA*dT*kG*kA*k[5mC]) [compound 799146] | – | 0 |
| 799147 (antisense kG*kT*kA*d[5mC]*d[5mC]*dT*dT*dG*dG*dG*dT*dT*dA*kT*kG*kA) [compound 799147] | – | 28 |

| Substance | % Inhibition [%] | % inhibition of SMAD7 mRNA expression [%] |
| --- | --- | --- |
| 799148 (antisense kT*kG*kG*dT*dA*d[5mC]*d[5mC]*dT*dT*dG*dG*dG*dT*kT*kA*kT) [compound 799148] | – | 29 |
| 799149 (antisense kG*kG*kA*dT*dG*dG*dT*dA*d[5mC]*d[5mC]*dT*dT*dG*kG*kG*kT) [compound 799149] | – | 46 |
| 799150 (antisense k[5mC]*kT*kA*dG*dG*dA*dT*dG*dG*dT*dA*d[5mC]*d[5mC]*kT*kT*kG) [compound 799150] | – | 22 |
| 799151 (antisense kA*kG*k[5mC]*d[5mC]*dT*dA*dG*dG*dA*dT*dG*dG*dT*kA*k[5mC]*k[5mC]) [compound 799151] | – | 39 |
| 799152 (antisense kT*kG*kT*d[5mC]*dA*dG*d[5mC]*d[5mC]*dT*dA*dG*dG*dA*kT*kG*kG) [compound 799152] | – | 33 |
| 799153 (antisense kG*kT*kT*dA*dG*dG*dT*dG*dT*d[5mC]*dA*dG*d[5mC]*k[5mC]*kT*kA) [compound 799153] | 68 | – |
| 799154 (antisense kA*kG*kA*dG*dT*dT*dA*dG*dG*dT*dG*dT*d[5mC]*kA*kG*k[5mC]) [compound 799154] | 39 | – |
| 799155 (antisense kA*kG*kA*dA*dG*dA*dG*dT*dT*dA*dG*dG*dT*kG*kT*k[5mC]) [compound 799155] | 32 | – |
| 799156 (antisense kG*kA*kA*dA*dG*dA*dA*dG*dA*dG*dT*dT*dA*kG*kG*kT) [compound 799156] | 37 | – |
| 799157 (antisense kG*kT*kT*dG*dT*dA*dG*dA*dA*dG*dA*dA*dA*kT*kG*kA) [compound 799157] | 39 | – |
| 799158 (antisense kT*kA*kT*dG*dA*dG*dT*dT*dG*dT*dA*dG*dA*kA*kG*kA) [compound 799158] | 33 | – |
| 799160 (antisense kA*k[5mC]*kG*dA*dG*dT*dG*dT*dA*dT*dG*dA*dG*kT*kT*kG) [compound 799160] | 61 | – |
| 799161 (antisense k[5mC]*kA*kT*dA*d[5mC]*dG*dA*dG*dT*dG*dT*dA*dT*kG*kA*kG) [compound 799161] | 29 | – |
| 799162 (antisense kT*kA*kT*d[5mC]*dA*dT*dA*d[5mC]*dG*dA*dG*dT*dG*kT*kA*kT) [compound 799162] | 36 | – |
| 799163 (antisense kA*kA*kG*dT*dA*dT*d[5mC]*dA*dT*dA*d[5mC]*dG*dA*kG*kT*kG) [compound 799163] | – | 45 |
| 799164 (antisense kT*k[5mC]*kG*dA*dA*dG*dT*dA*dT*d[5mC]*dA*dT*dA*k[5mC]*kG*kA) [compound 799164] | – | 37 |
| 799165 (antisense kG*kT*kG*dT*d[5mC]*dG*dA*dA*dG*dT*dA*dT*d[5mC]*kA*kT*kA) [compound 799165] | – | 42 |
| 799166 (antisense kA*kA*k[5mC]*dA*dG*dT*dG*dT*d[5mC]*dG*dA*dA*dG*kT*kA*kT) [compound 799166] | – | 21 |
| 799167 (antisense kA*kA*kG*dA*dA*d[5mC]*dA*dG*dT*dG*dT*d[5mC]*dG*kA*kA*kG) [compound 799167] | – | 58 |
| 799169 (antisense kT*kT*kG*dA*dG*d[5mC]*dT*dA*dA*dG*dA*dA*d[5mC]*kA*kG*kT) [compound 799169] | – | 0 |
| 799170 (antisense kT*k[5mC]*kA*dT*dT*dG*dA*dG*d[5mC]*dT*dA*dA*dG*kA*kA*k[5mC]) [compound 799170] | – | 17 |
| 799171 (antisense kT*kG*k[5mC]*dT*d[5mC]*dA*dT*dT*dG*dA*dG*d[5mC]*dT*kA*kA*kG) [compound 799171] | – | 30 |
| 799172 (antisense kA*kA*k[5mC]*dA*dT*dG*d[5mC]*dT*d[5mC]*dA*dT*dT*dG*kA*kG*k[5mC]) [compound 799172] | – | 4 |
| 799173 (antisense k[5mC]*kT*kA*dA*dA*d[5mC]*dA*dT*dG*d[5mC]*dT*d[5mC]*dA*kT*kT*kG) [compound 799173] | 18 | – |
| 799174 (antisense kA*kG*kT*d[5mC]*dT*dA*dA*dA*d[5mC]*dA*dT*dG*d[5mC]*kT*k[5mC]*kA) [compound 799174] | 42 | – |
| 799175 (antisense kT*kA*kA*dA*dG*dT*d[5mC]*dT*dA*dA*dA*d[5mC]*dA*kT*kG*k[5mC]) [compound 799175] | 0 | – |
| 799176 (antisense kT*kG*kT*dT*dA*dA*dA*dG*dT*d[5mC]*dT*dA*dA*kA*k[5mC]*kA) [compound 799176] | 0 | – |
